The results in this text go back to PubChem BioAssay AID1259407 (Chemical Carcinogenesis Research Information System (CCRIS), 2018).

The data set concerns CCRIS mutagenicity, Ames/micronucleus/aberration tests. The data set can be described thus: CCRIS mutagenicity studies.
Where [1] appears, read: End Point: IN VITRO CHROMOSOMAL ABERRATIONS, Test System: CHO CELLS, Metabolic Activation: NONE.
Where [2] appears, read: End Point: IN VITRO CHROMOSOMAL ABERRATIONS, Test System: CHO CELLS, Metabolic Activation: RAT, LIVER, S-9, AROCLOR 1254.
[3] abbreviates: Test System: AMES SALMONELLA TYPHIMURIUM, Strain/Indicator: TA98, Metabolic Activation: HAMSTER, LIVER, S-9, AROCLOR 1254, Method: PREINCUBATION
[4] abbreviates: Test System: AMES SALMONELLA TYPHIMURIUM, Strain/Indicator: TA98, Metabolic Activation: NONE, Method: PREINCUBATION
The mark [5] stands for this setting: Test System: AMES SALMONELLA TYPHIMURIUM, Strain/Indicator: TA98, Metabolic Activation: RAT, LIVER, S-9, AROCLOR 1254, Method: PREINCUBATION
Setting [6] is: Test System: AMES SALMONELLA TYPHIMURIUM, Strain/Indicator: TA100, Metabolic Activation: HAMSTER, LIVER, S-9, AROCLOR 1254, Method: PREINCUBATION
The mark [7] stands for this setting: Test System: AMES SALMONELLA TYPHIMURIUM, Strain/Indicator: TA100, Metabolic Activation: NONE, Method: PREINCUBATION
[8] abbreviates: Test System: AMES SALMONELLA TYPHIMURIUM, Strain/Indicator: TA100, Metabolic Activation: RAT, LIVER, S-9, AROCLOR 1254, Method: PREINCUBATION
Where [9] appears, read: Test System: AMES SALMONELLA TYPHIMURIUM, Strain/Indicator: TA1535, Metabolic Activation: HAMSTER, LIVER, S-9, AROCLOR 1254, Method: PREINCUBATION
Where [10] appears, read: Test System: AMES SALMONELLA TYPHIMURIUM, Strain/Indicator: TA1535, Metabolic Activation: NONE, Method: PREINCUBATION
Setting [11] is: Test System: AMES SALMONELLA TYPHIMURIUM, Strain/Indicator: TA1535, Metabolic Activation: RAT, LIVER, S-9, AROCLOR 1254, Method: PREINCUBATION
[12] abbreviates: Test System: AMES SALMONELLA TYPHIMURIUM, Strain/Indicator: TA1537, Metabolic Activation: HAMSTER, LIVER, S-9, AROCLOR 1254, Method: PREINCUBATION
The mark [13] stands for this setting: Test System: AMES SALMONELLA TYPHIMURIUM, Strain/Indicator: TA1537, Metabolic Activation: NONE, Method: PREINCUBATION
[14] abbreviates: Test System: AMES SALMONELLA TYPHIMURIUM, Strain/Indicator: TA1537, Metabolic Activation: RAT, LIVER, S-9, AROCLOR 1254, Method: PREINCUBATION
[15] abbreviates: Test System: AMES SALMONELLA TYPHIMURIUM, Strain/Indicator: TA98, Metabolic Activation: RAT, LIVER, S-9, AROCLOR 1254, Method: STANDARD PLATE.
Where [16] appears, read: Test System: AMES SALMONELLA TYPHIMURIUM, Strain/Indicator: TA98, Metabolic Activation: NONE, Method: STANDARD PLATE.
[17] abbreviates: Test System: AMES SALMONELLA TYPHIMURIUM, Strain/Indicator: TA100, Metabolic Activation: NONE, Method: STANDARD PLATE.

Active and inactive are the calls of the source. How the calls were made is not given here.

As for `Clc1ccccc1`, the mutagenic call reads like this: under setting [1], “inactive; negative”; under setting [2], “inactive; negative; previous trial yielded a positive response at 150 ug/ml but no dose-re”; under setting [3], “inactive; negative”; under setting [4], “inactive; negative”; under setting [5], “inactive; negative”; under setting [6], “inactive; negative”. The mutagenic call is “inactive; negative” under setting [7]; “inactive; negative” under setting [8]; “inactive; negative” under setting [9]; “inactive; negative” under setting [10]; “inactive; negative” under setting [11]; “inactive; negative” under setting [12]. Further, the mutagenic call was “inactive; negative” under setting [13] and “inactive; negative” under setting [14].

As for `Cc1cc2c(nc(N)n2C)c2nccnc12`, the mutagenic call under setting [15] was “active; positive”.

`Cc1ccc(/C(C#N)=C\C=C\c2ccccc2[N+](=O)[O-])cc1`: the mutagenic call (Test System: AMES SALMONELLA TYPHIMURIUM, Strain/Indicator: TA97A, Metabolic Activation: NONE, Method: STANDARD PLATE) is “active; positive”.

For `Cc1ccccc1NS(=O)(=O)c1cccc2cccnc12`, the mutagenic call under setting [16] is “inactive; negative”; the mutagenic call under setting [15] is “inactive; negative”; the mutagenic call under setting [17] is “inactive; negative”; the mutagenic call (Test System: AMES SALMONELLA TYPHIMURIUM, Strain/Indicator: TA100, Metabolic Activation: RAT, LIVER, S-9, AROCLOR 1254, Method: STANDARD PLATE) was “inactive; negative”; the mutagenic call (Test System: AMES SALMONELLA TYPHIMURIUM, Strain/Indicator: TA1535, Metabolic Activation: NONE, Method: STANDARD PLATE) is “inactive; negative”; the mutagenic call (Test System: AMES SALMONELLA TYPHIMURIUM, Strain/Indicator: TA1535, Metabolic Activation: RAT, LIVER, S-9, AROCLOR 1254, Method: STANDARD PLATE) was “inactive; negative”. In addition, the mutagenic call (Test System: AMES SALMONELLA TYPHIMURIUM, Strain/Indicator: TA1537, Metabolic Activation: NONE, Method: STANDARD PLATE) is “inactive; negative” and the mutagenic call (Test System: AMES SALMONELLA TYPHIMURIUM, Strain/Indicator: TA1537, Metabolic Activation: RAT, LIVER, S-9, AROCLOR 1254, Method: STANDARD PLATE) is “inactive; negative”.

Turning to `O=C1c2c(ccc3ccccc23)-c2cccc3cccc1c23`, the mutagenic call was “inactive; negative” under setting [16] and “inactive; negative” under setting [17].

`O=[N+]([O-])c1cc([N+](=O)[O-])c2c3ccccc3c3cccc4ccc1c2c43`: the mutagenic call under setting [16] was “active; positive”.

Consider `Nc1cc(N)cc(Cl)c1`, for which the mutagenic call is “active; positive (structural changes)” (End Point: IN VITRO CHROMOSOMAL ABERRATIONS, Test System: CHL CELLS, Metabolic Activation: RAT, LIVER, S-9, SODIUM PHENOBARBITAL AND 5,6-BENZOFLAVONE) and “active; positive” (Test System: UDS RODENT HEPATOCYTES, Strain/Indicator: THY INCORP (NON-S-PHASE), Metabolic Activation: NONE, Method: AUTORADIOGRAPHY).

Regarding `CC(C)OCC1CO1` (centres undefined), the mutagenic call (Test System: AMES SALMONELLA TYPHIMURIUM, Strain/Indicator: TA100, Metabolic Activation: HAMSTER, LIVER, S-9, AROCLOR 1254 (10%), Method: PREINCUBATION) was “active; positive”; the mutagenic call under setting [7] is “active; positive”; the mutagenic call (Test System: AMES SALMONELLA TYPHIMURIUM, Strain/Indicator: TA100, Metabolic Activation: RAT, LIVER, S-9, AROCLOR 1254 (10%), Method: PREINCUBATION) is “active; positive”; the mutagenic call (Test System: AMES SALMONELLA TYPHIMURIUM, Strain/Indicator: TA1535, Metabolic Activation: HAMSTER, LIVER, S-9, AROCLOR 1254 (10%), Method: PREINCUBATION) was “active; positive”; the mutagenic call under setting [10] is “active; positive”; the mutagenic call (Test System: AMES SALMONELLA TYPHIMURIUM, Strain/Indicator: TA1535, Metabolic Activation: RAT, LIVER, S-9, AROCLOR 1254 (10%), Method: PREINCUBATION) was “active; positive”.

On to `O=[N+]([O-])c1cc2cccc3c4ccccc4c4cccc1c4c23`, for which the mutagenic call runs as follows: (Test System: AMES SALMONELLA TYPHIMURIUM, Strain/Indicator: TA98, Metabolic Activation: NONE', Method: STANDARD PLATE) “active; positive”; under setting [17], “active; positive”.

For the molecule `[Pt+2].[S-]CCCCl.[S-]CCCCl`, the mutagenic call is “inactive; negative” (Test System: AMES SALMONELLA TYPHIMURIUM, Strain/Indicator: TA92, Metabolic Activation: NONE, Method: STANDARD PLATE); “inactive; negative” under setting [16]; “active; positive” under setting [17]; “active; positive” (Test System: AMES SALMONELLA TYPHIMURIUM, Strain/Indicator: TA2410, Metabolic Activation: NONE, Method: STANDARD PLATE).

Consider `CCCCC/C=C\C/C=C\C/C=C\C/C=C\CCCC(=O)O`, for which the mutagenic call (Test System: CHINESE HAMSTER V-79, Strain/Indicator: V-79/6-THIOGUANINE, Metabolic Activation: NONE) is “active; positive”.

For the molecule `CC(=O)OCC(O)CO` (centres undefined), the mutagenic call is “inactive; negative” under setting [1]; “inactive; negative” under setting [2]; “inactive; negative” under setting [3]; “inactive; negative” under setting [4]; “inactive; negative” under setting [5]; “inactive; negative” under setting [6]. Besides, the mutagenic call runs as follows: under setting [7], “inactive; negative”; under setting [8], “inactive; negative”; under setting [9], “active; positive”; under setting [10], “active; positive”; under setting [11], “active; positive”; under setting [12], “inactive; negative”. Further, the mutagenic call was “inactive; negative” under setting [13] and “inactive; negative” under setting [14].

Take `NC(=O)N(Cc1ccccc1)N=O`: the mutagenic call (Test System: AMES SALMONELLA TYPHIMURIUM, Strain/Indicator: TA100, Metabolic Activation: NONE, Method: LIQUID INCUBATION) was “active; positive” and the mutagenic call (Test System: AMES SALMONELLA TYPHIMURIUM, Strain/Indicator: TA1535, Metabolic Activation: NONE, Method: LIQUID INCUBATION) was “inactive; negative”.

Regarding `COc1cccc2c1C(=O)c1c(O)c3c(c(O)c1C2=O)C[C@@](O)(C(=O)CO)C[C@@H]3O[C@H]1C[C@H](N)C[C@H](C)O1`, the mutagenic call is, setting by setting: (Test System: AMES SALMONELLA TYPHIMURIUM, Strain/Indicator: GW257, Metabolic Activation: NONE, Method: STANDARD PLATE) “active; positive”; under setting [16], “active; positive”; under setting [17], “active; positive”; (Test System: AMES SALMONELLA TYPHIMURIUM, Strain/Indicator: TA1538, Metabolic Activation: NONE, Method: STANDARD PLATE) “active; positive”; (Test System: CHINESE HAMSTER V-79, Strain/Indicator: V-79/6-THIOGUANINE, Metabolic Activation: NONE, Method: SUSPENSION/PLATE) “active; positive”; (Test System: CHINESE HAMSTER V-79, Strain/Indicator: V-79/6-THIOGUANINE, Metabolic Activation: RAT, LIVER, HOMOGENATE, Method: SUSPENSION/PLATE) “inactive; negative”.
